Square brackets hold non-standard residues; d marks the D form. Peptide text beside a SMILES is read from it. NMeF = CN[C@@H](Cc1ccccc1)C(=O)O; NMeI = CC[C@H](C)[C@H](NC)C(=O)O; NMeL = CN[C@@H](CC(C)C)C(=O)O; NMeA = CN[C@@H](C)C(=O)O; dNMeA = CN[C@H](C)C(=O)O; Sar = CNCC(=O)O
How the values were obtained:
[1] = system: growth hormone release from rat pituitary cells; assay: In vitro test for the inhibition of growth hormone release in cultured rat pituitary cells; format: cell-based; settings: multiples or fractions of the effect of somatostatin (=1), fiducial limits in parentheses, 4 hours incubation
Experimental: The instant cyclic hexapeptide analogs of somatostatin are tested and compared with the effects of somatostatin in an in vitro test for the inhibition of growth hormone. The test is described as follows:
Rat pituitaries were isolated according to the procedures of Vale and Grant "In vitro Pituitary Hormone Secretion Assay for Hypophysiotropic Substances" in Methods in Enzymology. Vol. XXXVII, eds. O'Malley, B. W. and Hardman, J. G. (Academic Press, Inc., New York) pp. 5-93 (1975).
After 4 days in culture, the cells were washed and incubated for 4 hours in Dulbecco-modified Eagle's medium in the presence or absence of graded doses of each analog of somatostatin. The medium was then collected for subsequent growth hormone determination by a double antibody radioimmunoassay for rat growth hormone."
The test results for some of the compounds of this invention are recorded below with the results for somatostatin listed first and given the arbitrary value of 1. The results for the instant compounds are given as multiples or fractions of the effect of somatostatin. The numbers in parentheses are the fiducial limits for the number preceding. The first of the instant compounds listed is the compound prepared in Examples 1-5. The compound is written slightly different, however, to conform to the order of the amino acids found in somatostatin.

[2] = system: pentagastrin evoked gastric secretion; assay: Inhibition of pentagastrin evoked gastric secretion in the chronic fistula dog; format: in vivo; settings: Dose 0.8 μg/ml./min., infusion 0-60 min., relative to placebo; for Gastric Secretion % Inhibition Acid Concentration 0-30 / Gastric Secretion % Inhibition Vol. 0-30: 0-30 min; for Gastric Secretion % Inhibition Acid Concentration 30-60 / Gastric Secretion % Inhibition Vol. 30-60: 30-60 min; for Gastric Secretion % Inhibition Acid Concentration 60-90 / Gastric Secretion % Inhibition Vol. 60-90: 60-90 min; for Gastric Secretion % Inhibition Acid Concentration 90-120 / Gastric Secretion % Inhibition Vol. 90-120: 90-120 min; for Gastric Secretion % Inhibition Vol. 0-30 / Gastric Secretion % Inhibition Vol. 30-60 / Gastric Secretion % Inhibition Vol. 60-90 / Gastric Secretion % Inhibition Vol. 90-120: output volume
Experimental: The effects of the instant cyclichexapeptide analogs of somatostatin are determined by the following procedure.
Compounds were tested for their ability to inhibit pentagastrin evoked gastric secretion in the chronic fistula dog. Female beagle dogs with a chronic gastric fistula were given pentagastrin (2.5 μg./kg./hour, i.v. from -60 to 120 min.) and gastric outputs were collected via the fistula cannula. Samples were analyzed at 30 minute intervals for volume (ml.) and titratable acid (mEq/L) (Titration to pH 7 with 0.01 N NaOH); total acid output (mEq) was calculated as the production of output volume and acid concentration. Test compounds were infused at a constant rate from 0 to 60 minutes. Data have been expressed as percent change of total acid output relative to a placebo trial in the same animals.

In the case of C[C@@H](O)[C@@H]1NC(=O)[C@H](CCCCN)NC(=O)[C@@H](Cc2c[nH]c3ccccc23)NC(=O)[C@H](Cc2ccccc2)NC(=O)[C@H](C)N(C)C(=O)[C@H](Cc2ccccc2)NC1=O [Cyclo(D-Trp-Lys-Thr-Phe-N-Me-Ala-Phe)] (cyclo(F[NMeA]F[dW]KT)), the “Growth Hormone Release Inhibition In Vitro” value [1] is reported as 4.38(2.15-11.90), the “Gastric Secretion % Inhibition Acid Concentration 0-30” value [2] is reported as 15% and the “Gastric Secretion % Inhibition Acid Concentration 30-60” value [2] is reported as 41%. For the same compound, the “Gastric Secretion % Inhibition Acid Concentration 60-90” value [2] was 47%, the “Gastric Secretion % Inhibition Acid Concentration 90-120” value [2] was 48% and the “Gastric Secretion % Inhibition Vol. 0-30” value [2] was 91%. The “Gastric Secretion % Inhibition Vol. 30-60” value [2] was 92%, the “Gastric Secretion % Inhibition Vol. 60-90” value [2] was 90% and the “Gastric Secretion % Inhibition Vol. 90-120” value [2] was 84%.

C[C@H]1C(=O)N[C@@H](Cc2c[nH]cn2)C(=O)N[C@H](Cc2c[nH]c3ccccc23)C(=O)N[C@@H](CCCCN)C(=O)N[C@@H](CO)C(=O)N[C@@H](Cc2ccc(O)cc2)C(=O)N1C [Cyclo(N--Me--Ala--His--D-Trp-- Lys--Ser--Tyr)] (cyclo(H[dW]KSY[NMeA])) was tested, and the “Growth Hormone Release Inhibition In Vitro” value [1] was 0.38(0.16-0.75).

For C[C@@H]1C(=O)N[C@@H](Cc2ccccc2)C(=O)N[C@H](Cc2c[nH]c3ccccc23)C(=O)N[C@@H](CCCCN)C(=O)N[C@@H]([C@@H](C)O)C(=O)N[C@@H](Cc2ccccc2)C(=O)N1C [Cyclo(N--Me--D-Ala-- Phe--D-Trp-- Lys--Thr--Phe)] (cyclo(F[dNMeA]F[dW]KT)), the “Growth Hormone Release Inhibition In Vitro” value [1] was 2.13(0.83-6.00), the “Gastric Secretion % Inhibition Acid Concentration 0-30” value [2] was 12% and the “Gastric Secretion % Inhibition Acid Concentration 30-60” value [2] was 34%. The “Gastric Secretion % Inhibition Acid Concentration 60-90” value [2] was 9%, the “Gastric Secretion % Inhibition Acid Concentration 90-120” value [2] was 0% and the “Gastric Secretion % Inhibition Vol. 0-30” value [2] was 50%. The “Gastric Secretion % Inhibition Vol. 30-60” value [2] was 84%, the “Gastric Secretion % Inhibition Vol. 60-90” value [2] was 0% and the “Gastric Secretion % Inhibition Vol. 90-120” value [2] was 0%.

For CC[C@H](C)[C@H]1C(=O)N[C@@H](Cc2ccccc2)C(=O)N[C@H](Cc2c[nH]c3ccccc23)C(=O)N[C@@H](CCCCN)C(=O)N[C@@H]([C@@H](C)O)C(=O)N[C@@H](Cc2ccccc2)C(=O)N1C [Cyclo(N--Me--Ile--Phe--D-Trp-- Lys--Thr--Phe)] (cyclo(F[NMeI]F[dW]KT)), the “Growth Hormone Release Inhibition In Vitro” value [1] was 1.86(1.35-2.57).

In the case of CC(C)C[C@H]1C(=O)N[C@@H](Cc2ccccc2)C(=O)N[C@H](Cc2c[nH]c3ccccc23)C(=O)N[C@@H](CCCCN)C(=O)N[C@@H]([C@@H](C)O)C(=O)N[C@@H](Cc2ccccc2)C(=O)N1C [Cyclo(N--Me--Leu--Phe--D-Trp-- Lys--Thr--Phe)] (cyclo(F[NMeL]F[dW]KT)), the “Growth Hormone Release Inhibition In Vitro” value [1] is reported as 0.49(0.19-0.98).

With C[C@@H](O)[C@@H]1NC(=O)[C@H](CCCCN)NC(=O)[C@@H](Cc2c[nH]c3ccccc23)NC(=O)[C@H](Cc2ccccc2)NC(=O)[C@H](Cc2ccccc2)N(C)C(=O)[C@H](Cc2ccccc2)NC1=O [Cyclo(N--Me--Phe--Phe--D-Trp-- Lys--Thr--Phe)] (cyclo(F[NMeF]F[dW]KT)) the “Growth Hormone Release Inhibition In Vitro” value [1] was 13.3(9.6-18.1).

For C[C@H]1C(=O)N[C@@H](Cc2c[nH]cn2)C(=O)N[C@H](Cc2c[nH]c3ccccc23)C(=O)N[C@@H](CCCCN)C(=O)N[C@@H](CO)C(=O)N[C@@H](Cc2c[nH]c3ccccc23)C(=O)N1C [Cyclo--(N--Me--Ala--His--D-Trp-- Lys--Ser--Trp)] (cyclo(H[dW]KSW[NMeA])), the “Growth Hormone Release Inhibition In Vitro” value [1] was 1.45(0.9-2.06).

CC(C)[C@@H]1NC(=O)[C@H](CCCCN)NC(=O)[C@@H](Cc2c[nH]c3ccccc23)NC(=O)[C@H](Cc2ccc(O)cc2)NC(=O)[C@H](C)N(C)C(=O)[C@@H](Cc2ccccc2)NC1=O [Cyclo--(N--Me--Ala--Tyr--D-Trp-- Lys--Val--D-Phe)] was tested, and the “Growth Hormone Release Inhibition In Vitro” value [1] was 5.0(3.12-8.17).

For CC(C)[C@@H]1NC(=O)[C@H](CCCCN)NC(=O)[C@@H](Cc2c[nH]c3ccccc23)NC(=O)[C@H](Cc2ccc(O)cc2)NC(=O)[C@H](C)N(C)C(=O)[C@H](Cc2ccccc2)NC1=O [Cyclo--(N--Me--Ala--Tyr--D-Trp-- Lys--Val--Phe)], the “Growth Hormone Release Inhibition In Vitro” value [1] was 52(35-75).

CC(C)[C@@H]1NC(=O)[C@H](CCCCN)NC(=O)[C@@H](Cc2c[nH]c3ccccc23)NC(=O)[C@H](Cc2ccc(O)cc2)NC(=O)[C@H](C)N(C)C(=O)[C@H](Cc2c[nH]c3ccccc23)NC1=O [Cyclo--(N--Me--Ala--Tyr--D-Trp-- Lys--Val--Trp)] (cyclo(KVW[NMeA]Y[dW])) was tested, and the “Growth Hormone Release Inhibition In Vitro” value [1] was 26.9(17.2-40.3).

C[C@@H](O)[C@@H]1NC(=O)[C@H](CCCCN)NC(=O)[C@@H](Cc2c[nH]c3ccccc23)NC(=O)[C@H](Cc2ccccc2)NC(=O)CN(C)C(=O)[C@H](Cc2ccccc2)NC1=O [Cyclo--(Sar--Phe--D-Trp-- Lys--Thr--Phe)] (cyclo(F[Sar]F[dW]KT)) was tested, and the “Growth Hormone Release Inhibition In Vitro” value [1] was 1.47(0.93-2.3).

With “Cyclo--(N--Me--Ala--O--I--Phe--D-Trp-- Lys--Val--Phe)” the “Growth Hormone Release Inhibition In Vitro” value [1] was 13.9(9.5-20.0).

With “Cyclo--(N--Me--Ala--O--Phe--D-Trp-- Lys--Val--L--Trp)” the “Growth Hormone Release Inhibition In Vitro” value [1] was 22.9(15.0-33.6).

For “Cyclo--(N--Me--Ala--Phe--D-Trp-- Lys--The--O--I--Phe)”, the “Growth Hormone Release Inhibition In Vitro” value [1] was 12.1(5.2-23.4).

For “Cyclo--(N--Me--OABU--Phe--D-Trp-- Lys--Thr--Phe)”, the “Growth Hormone Release Inhibition In Vitro” value [1] was 24.6(15.3-46.5).

Source: patent US4310518A, “Cyclic hexapeptide somatostatin analogs” (Merck & Co., Inc., priority 1980, dated 1982)
